Results on one compound are retold here after patent US20230167505A1, “CIRCULATING TUMOR DNA AS A BIOMARKER FOR LEUKEMIA TREATMENT” (Cardiff Oncology, Inc., priority 2020, published 2023).

For experiment [1], the system named is phosphorylation of the PLK1 substrate, TCTP. Nature of the experiment: Plasma inhibitory activity assay (pTCTP/TCTP in HL-60 cells incubated with patient plasma). Type of experiment: cell-based. The protocol:
Plasma inhibitory activity assay: Onvansertib plasma inhibitory activity was assessed by measuring changes in the phosphorylation of the PLK1 substrate, TCTP, as described previously for FLT3 inhibitors. HL-60 cell line used for this assay was obtained from the ATCC and cultured in Iscove's modified Dulbecco's medium supplemented with 20% FBS. The cell line was not tested for Mycoplasma. Briefly, 3×10^6 HL-60 cells (passage 2-5) were incubated with 1 mL of patient plasma at 37° C. for 1 hour. Cells were washed, lysed, and changes in phosphorylated TCTP (pTCTP)/TCTP were assessed by immunoblot. […] For each dose level, 3-4 patients were analyzed (a total of 18 patients) on the basis of the availability of plasma samples, and each dose level included at least 1 patient of each arm (LDAC/decitabine). For each patient, pTCTP/TCTP level was quantified in cells incubated with plasma collected on day 1 at predose and postdose (tmax) and normalized to day 1 predose sample to measure the % pTCTP inhibition by onvansertib-containing plasma.
Protein extract preparation and immunoblot: Protein extracts were prepared from PBMCs isolated from CellSave tube and from HL-60 cells using M-PER buffer with Protease and Phosphatase Inhibitor Cocktails (Thermo Fisher Scientific). Protein concentration was measured with the Pierce BCA Protein Assay Kit (Thermo Fisher Scientific). […]

Another experiment deals with R/R AML. Nature of the experiment: Phase 2 anti-leukemic activity, onvansertib with decitabine. Type of experiment: in vivo, human. The conditions noted are these: Phase 2, onvansertib 60 mg/m^2 + decitabine.
Experiment [2] deals with cell lines, both from solid as well as hematologic tumors. The conditions noted are these: large number of cell lines; cited from earlier work.
For a further experiment, the target named is PLK1 (Homo sapiens, UniProt P53350). The conditions noted are these: panel of 296 kinases, including other PLK members; cited from earlier work.
Sequence of PLK1 (P53350 whole entry): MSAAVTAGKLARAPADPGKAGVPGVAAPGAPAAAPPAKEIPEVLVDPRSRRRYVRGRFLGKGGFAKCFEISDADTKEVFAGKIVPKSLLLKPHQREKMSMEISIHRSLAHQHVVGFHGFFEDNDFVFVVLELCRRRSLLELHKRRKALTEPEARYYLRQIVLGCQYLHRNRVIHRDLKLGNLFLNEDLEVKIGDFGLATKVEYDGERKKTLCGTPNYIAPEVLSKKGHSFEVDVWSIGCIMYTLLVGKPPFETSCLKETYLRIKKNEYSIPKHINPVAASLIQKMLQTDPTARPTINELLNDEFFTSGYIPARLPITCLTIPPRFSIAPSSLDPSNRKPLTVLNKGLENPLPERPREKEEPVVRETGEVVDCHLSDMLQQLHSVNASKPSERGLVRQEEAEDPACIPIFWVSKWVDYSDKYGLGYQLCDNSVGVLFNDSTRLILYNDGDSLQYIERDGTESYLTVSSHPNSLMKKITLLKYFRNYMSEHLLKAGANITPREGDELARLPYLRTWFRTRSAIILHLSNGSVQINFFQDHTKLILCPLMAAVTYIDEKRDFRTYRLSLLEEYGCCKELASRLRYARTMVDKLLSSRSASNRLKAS

For the compound `CN1CCN(c2ccc(OC(F)(F)F)c(Nc3ncc4c(n3)-c3c(c(C(N)=O)nn3CCO)CC4)c2)CC1` [onvansertib, 1-(2-hydroxyethyl)-8-{[5-(4-methylpiperazin-1-yl)-2-(trifluoromethoxy)phenyl]amino}-4,5-dihydro-1H-pyrazolo [4,3-h] quinazoline-3-carboxamide], the “pTCTP inhibition by patient plasma versus dose” value in experiment [1] (plasma from all dose levels (12-60 mg/m^2)) is “greater pTCTP inhibition at higher doses”. Moreover, the “pTCTP in HL-60 cells incubated with on-treatment plasma” value in experiment [1] (plasma of days 1 and 5, not with day 22 plasma (undetectable onvansertib)) is reported as “reduced”. Also, the CR/CRi rate with R/R AML was found to be 17%. For the same compound, the “activity in proliferation assays” value in experiment [2] is given as “low nanomolar activity”. In addition, the “specificity for PLK1” value on PLK1 is reported as “high specificity”.
